The record followed here is patent US20210260101A1, “POTENTIATED ANTIBIOTIC COMPOSITIONS AND METHODS OF USE FOR TREATING BACTERIAL INFECTIONS AND BIOFILMS” (priority 2018, published 2021).

In brackets after ≈: the same amount, converted by molar mass. Where two headings read alike, the source gives them in different places.

For one experiment, the system named is MRSA USA 300 ATCC 1717. Nature of the experiment: Checkerboard MIC assay against MRSA USA300 (Example 1). It counts as cell-based, Staphylococcus aureus. The following applies: MRSA USA300; for MIC: Staphylococcus aureus, agent alone, read-out: MIC of antibiotic only.
Experiment [1] has as its system MRSA clinical isolate OU6. Nature of the experiment: Clinical laboratory susceptibility (MicroScan), MRSA isolate 6. It counts as cell-based, S. aureus. The following applies: MicroScan PC33 gram positive panel.
Experiment [2] deals with MRSA clinical isolate OU11. Nature of the experiment: Clinical laboratory susceptibility (MicroScan), MRSA isolate 11. The following applies: MicroScan PC33 gram positive panel. It counts as cell-based, S. aureus.
The subject of experiment [3] is clinical isolates OU15, OU19, and OU22. Nature of the experiment: Checkerboard assay, isolates OU15, OU19 and OU22 reported together. The following applies: for MIC: Pseudomonas aeruginosa; for interaction with BPEI600: isolates OU15, OU19, OU22 (data not shown). It counts as cell-based, Pseudomonas aeruginosa. As for the experimental part: (§1) Cells were grown at 35° C. with shaking. The OD600 (optical density at 600 nm) was monitored and recorded for each sample over 24 hr. Each checkerboard trial was done in triplicate using sterile Greiner CellStar™ flat bottom polystyrene plates, catalog #655180. Each growth curve was done in duplicate.

Another experiment relates to PA OU15. Nature of the experiment: Checkerboard assay, PA OU15. It counts as cell-based, Pseudomonas aeruginosa. The following applies: Pseudomonas aeruginosa, PA OU15. As for the experimental part:
as §1

A further experiment relates to PA OU19. Nature of the experiment: Checkerboard assay, PA OU19. It counts as cell-based, Pseudomonas aeruginosa. The following applies: Pseudomonas aeruginosa, PA OU19. As for the experimental part:
as §1

The test system of another experiment is PA OU22. The experiment can be described thus: Checkerboard assay, PA OU22. It counts as cell-based, Pseudomonas aeruginosa. The following applies: Pseudomonas aeruginosa, PA OU22. As for the experimental part:
as §1

The test system of experiment [4] is S. epidermidis ATCC 12228 (MSSE 12228). The experiment can be described thus: MIC/potentiation against MSSE 12228. It counts as cell-based, Staphylococcus epidermidis. The following applies: for MIC of antibiotic only: agent alone.
For experiment [5], the system named is S. epidermidis ATCC 35984 (MRSE 35984). Nature of the experiment: MIC/potentiation against MRSE 35984 (Example 1). The following applies: for MIC of antibiotic only: agent alone. It counts as cell-based, Staphylococcus epidermidis.
A further experiment concerns MRSA 43300 biofilms. The experiment can be described thus: MBEC assay (MICCP and MBEC), MRSA 43300. It counts as cell-based, Staphylococcus aureus. As for the experimental part: (§2) Bacterial culture was inoculated in an MBEC pronged-inoculator and incubated for 24 hr to allow biofilm formation. […] The change in optical density at 600 nm (Δ OD600) was measured. Minimum inhibitory concentration (MIC) of each drug is determined as the lowest concentration that inhibited cell growth (ΔOD600<0.05). Fractional inhibitory concentration index (FICI) was calculated as: […]
(§3) Synergistic effects are determined using EUCAST guidelines: synergy (FICI≤0.5), additivity (0.5<FICI<1), and indifference (FICI>1). The treated pronged-inoculator was then washed and transferred to a recovery plate with 200 μL MHB/well to sonicate and recover any remaining biofilm bacteria. The recovery plate was then incubated overnight before measuring ΔOD600 to determine MBECs and FICIs of the drugs tested on the biofilms.
(§4) MBEC assays were utilized on MRSA OU6 and MRSA OU11 and a lab strain MRSA ATCC 43300. The MRSA bacteria were used to inoculate a 96-well inoculation plate, where MRSA biofilms were grown on prongs protruding from the plate lid, known as the MBEC inoculator lid and based on the Calgary biofilm device. […] The final step was moving the treated inoculation lid to a third plate (the recovery plate) containing growth-media only and using sonication to dislodge the biofilm and recover cells remaining in the biofilm. In this manner, the synergy of BPEI and ampicillin against MRSA biofilms was evaluated. Standard CLSI (Clinical & Laboratory Standards Institute) guidelines describe a standard MIC assay using 96-well plates inoculated with a standard cell density, usually ˜10^6 CFU/mL. However, the MIC data reported here is non-standard because, rather than inoculation via micropipette transfer from an overnight culture, inoculation of the challenge plate occurs from the biofilm-coated inoculation lid where treatment challenge disrupts the protective biofilm EPS matrix. […] The MBEC is determined from cell growth in the recovery plate and reflects the ability of BPEI600, ampicillin, or its combinations to kill the biofilm remaining attached to the prongs of the inoculation lid. […]

The next experiment concerns MRSA OU6 biofilms. Nature of the experiment: MBEC assay (MICCP and MBEC), MRSA OU6. It counts as cell-based, Staphylococcus aureus. As for the experimental part:
as §2, §3, §4

The test system of another experiment is MRSA OU11 biofilms. The experiment can be described thus: MBEC assay (MICCP and MBEC), MRSA OU11. It counts as cell-based, Staphylococcus aureus. The protocol: as §2, §3, §4
The mark [6] stands for this setting: read-out: cefepime MIC with 16 μg/mL of BPEI600.

On to `C[C@@H](O)[C@H]1C(=O)N2C(C(=O)O)=C(SCCN=CN)C[C@H]12` [imipenem], for which, in the experiment with MRSA USA 300 ATCC 1717, the “MIC with 4 μg/ml (6.75 μM) 600-Da BPEI” value is 0.03 µg/mL and the MIC was 4 µg/mL.

In the case of `CC1=C(C(=O)O)N2C(=O)[C@@H](NC(=O)[C@H](N)c3ccccc3)[C@H]2SC1` [cephalexin], in the experiment with MRSA USA 300 ATCC 1717, the “MIC with 4 μg/ml (6.75 μM) 600-Da BPEI” value was 0.5 µg/mL and the MIC turned out to be 2 µg/mL.

As to `CN(C)[C@@H]1C(O)=C(C(N)=O)C(=O)[C@@]2(O)C(O)=C3C(=O)c4c(O)cccc4[C@@](C)(O)[C@H]3C[C@@H]12` [Tetracycline], the MIC in experiment [1] and in experiment [2] was no more than 4 µg/mL each time.

`CC[C@H]1OC(=O)[C@H](C)[C@@H](O[C@H]2C[C@@](C)(OC)[C@@H](O)[C@H](C)O2)[C@H](C)[C@@H](O[C@@H]2O[C@H](C)C[C@H](N(C)C)[C@H]2O)[C@](C)(O)C[C@@H](C)C(=O)[C@H](C)[C@@H](O)[C@]1(C)O` [Erythromycin]: the MIC in experiment [1] was greater than 4 µg/mL; in [2], greater than 4 µg/mL; in experiment [3], 256 µg/mL; in experiment [3] (read-out: erythromycin MIC in the presence of 16 μg/mL of BPEI600), 64 µg/mL. For the same compound, the “factor of reduction of erythromycin MIC by BPEI600” value in experiment [3] (data not shown) is 4. Also, the “interaction with BPEI600” value in experiment [3] is “exhibited synergy”.

`CC1(C)S[C@@H]2[C@H](NC(=O)[C@H](N)c3ccc(O)cc3)C(=O)N2[C@H]1C(=O)O` [amoxicillin]: in the experiment on MRSA USA 300 ATCC 1717, the “MIC with 4 μg/ml (6.75 μM) 600-Da BPEI” value was 1 µg/mL and the MIC turned out to be 4 µg/mL.

Regarding `CO/N=C(\C(=O)N[C@@H]1C(=O)N2C(C(=O)[O-])=C(C[N+]3(C)CCCC3)CS[C@H]12)c1csc(N)n1` [cefepime], the “MIC with 4 μg/ml (6.75 μM) 600-Da BPEI” value in the experiment on MRSA USA 300 ATCC 1717 was 1 µg/mL. The MIC in the experiment on MRSA USA 300 ATCC 1717 came to 4 µg/mL; with PA OU15 (setting [6]), 0.5 µg/mL; with PA OU15 (agent alone, read-out: MIC) it was 32 µg/mL; in the experiment with PA OU19 (setting [6]), 8 µg/mL; with PA OU19 (agent alone, read-out: MIC), 64 µg/mL; in the experiment with PA OU22 (setting [6]), 8 µg/mL. Besides, the MIC with PA OU22 (agent alone, read-out: MIC) came out at 128 µg/mL.

Take `CO/N=C(\C(=O)N[C@@H]1C(=O)N2C(C(=O)O)=CCS[C@H]12)c1csc(N)n1` [ceftizoxime]: in the experiment on MRSA USA 300 ATCC 1717, the “MIC, antibiotic + 32 μg/ml (20 μM) PEG1000BPEI600” value came to 8 µg/mL; the “MIC, antibiotic + 64 μg/ml (40 μM) PEG1000BPEI600” value turned out to be 0.5 µg/mL; the MIC amounted to 128 µg/mL.

For `C[C@@H](O)[C@H]1C(=O)N2C(C(=O)O)=C(S[C@@H]3CN[C@H](C(=O)N(C)C)C3)[C@H](C)[C@H]12` [meropenem], the MIC in experiment [3] (isolates OU15, OU19, OU22, agent alone (data not shown), read-out: MIC) fell in the range of 16 to 64 µg/mL. The “interaction with BPEI600” value in experiment [3] is recorded as “no synergy (no synergy (FICI≥1))”.

Take Gentamicin: the MIC in experiment [1] and in experiment [2] was no more than 4 µg/mL each time.

Regarding `CN[C@H](CC(C)C)C(=O)N[C@H]1C(=O)N[C@@H](CC(N)=O)C(=O)N[C@H]2C(=O)N[C@H]3C(=O)N[C@H](C(=O)N[C@H](C(=O)O)c4cc(O)cc(O)c4-c4cc3ccc4O)[C@H](O)c3ccc(c(Cl)c3)Oc3cc2cc(c3O[C@@H]2O[C@H](CO)[C@@H](O)[C@H](O)[C@H]2O[C@H]2C[C@](C)(N)[C@H](O)[C@H](C)O2)Oc2ccc(cc2Cl)[C@H]1O` [vancomycin], in experiment [4], the “MIC, antibiotic + 2 μg/ml (3.375 μM) 600-Da BPEI” value (“MIC, antibiotic + 2 μg/ml” for short) is 1 µg/mL; the “MIC, antibiotic + 4 μg/ml (6.75 μM) 600-Da BPEI” value (“MIC, antibiotic + 4 μg/ml” below) was 1 µg/mL; the “MIC of antibiotic only” value was 1 µg/mL. In addition, in experiment [5], the “MIC, antibiotic + 2 μg/ml” value came to 2 µg/mL; the “MIC, antibiotic + 4 μg/ml” value came to 0.5 µg/mL; the “MIC of antibiotic only” value is 2 µg/mL. The MIC in experiment [1] was 2 µg/mL (≈ 1.38 µM). In experiment [2], this compound came in with an MIC of 1 µg/mL (≈ 0.69 µM).

Turning to `CCC[C@@H]1C[C@@H](C(=O)N[C@@H]([C@H]2O[C@H](SC)[C@H](O)[C@@H](O)[C@H]2O)[C@H](C)Cl)N(C)C1` [Clindamycn], the MIC in experiment [1] and in experiment [2] was greater than 4 µg/mL throughout.

With `CC(=O)NC[C@H]1CN(c2ccc(N3CCOCC3)c(F)c2)C(=O)O1` [linezolid], the “MIC with 4 μg/ml (6.75 μM) 600-Da BPEI” value in the experiment on MRSA USA 300 ATCC 1717 came out at 0.5 µg/mL. Moreover, the MIC in the experiment with MRSA USA 300 ATCC 1717 was 0.5 µg/mL; in experiment [1], 2 µg/mL (≈ 5.93 µM); in experiment [2] it was 2 µg/mL (≈ 5.93 µM). The figures for the “MIC, antibiotic + 2 μg/ml” value in experiment [4] and in [5] were 0.25 µg/mL and 0.5 µg/mL, respectively. Besides, the “MIC, antibiotic + 4 μg/ml” value in experiment [4] and in experiment [5] was 0.25 µg/mL each time. The “MIC of antibiotic only” value in experiment [4] is 0.25 µg/mL; in [5] it was 1 µg/mL.

As for `CCCCCCCCCC(=O)N[C@@H](Cc1c[nH]c2ccccc12)C(=O)N[C@H](CC(N)=O)C(=O)N[C@@H](CC(=O)O)C(=O)N[C@@H]1C(=O)NCC(=O)N[C@@H](CCCN)C(=O)N[C@@H](CC(=O)O)C(=O)N[C@H](C)C(=O)N[C@@H](CC(=O)O)C(=O)NCC(=O)N[C@H](CO)C(=O)N[C@@H]([C@H](C)CC(=O)O)C(=O)N[C@@H](CC(=O)c2ccccc2N)C(=O)O[C@@H]1C` [Daptomycin], the MIC in experiment [1] and in experiment [2] was no more than 0.5 µg/mL throughout.

As for `CC1(C)S[C@@H]2[C@H](NC(=O)[C@H](N)c3ccccc3)C(=O)N2[C@H]1C(=O)O` [ampicillin], the MICCP with MRSA 43300 biofilms (MRSA 43300, challenge plate, agent alone) was 128 µg/mL; in the experiment with MRSA OU6 biofilms (MRSA OU6, challenge plate, agent alone) it was 256 µg/mL; with MRSA OU11 biofilms (MRSA OU11, challenge plate, agent alone), 128 µg/mL. Further, the “Ampicillin MBEC + 64 μg/mL BPEI” value with MRSA 43300 biofilms (MRSA 43300 biofilm) is 2 µg/mL; with MRSA OU6 biofilms (MRSA OU6 biofilm), 64 µg/mL; in the experiment with MRSA OU11 biofilms (MRSA OU11 biofilm) it was 32 µg/mL. The MBEC in the experiment with MRSA 43300 biofilms (MRSA 43300 biofilm, agent alone) is greater than 256 µg/mL; in the experiment on MRSA OU6 biofilms (MRSA OU6 biofilm, agent alone), greater than 256 µg/mL; with MRSA OU11 biofilms (MRSA OU11 biofilm, agent alone), greater than 256 µg/mL.
